Here are results for 2 compounds from US11319289B2, “5-hydroxy pyridine-based compound for use as P2X1 and P2X3 receptor antagonist and pharmaceutical composition comprising same” (GWANGJU INSTITUTE OF SCIENCE AND TECHNOLOGY, priority 2017, dated 2022).

Data set [1] in a line: Plasma protein binding by rapid equilibrium dialysis, rat. Format: in vitro ADME. The note with it: plasma (50% in PBS), pH 7.4, read-out: Plasma protein binding rate, Rat (converted). As to the method:
Plasma protein binding was measured by rapid equilibrium dialysis (RED). A DMSO stock solution of the compounds was prepared at a concentration of 10 mM and diluted to a concentration of […] with 50% plasma in phosphate buffered saline (PBS, pH 7.4). Plasma samples (100 μL) and PBS (300 μL) were added to the sample chamber and the buffer chamber, respectively, after which the RED device was turn on and the samples were incubated in a shaking incubator at 37° C. for 4 hours. After dialysis, 50 μl aliquots were collected from each side of the chamber. 50 μl of blank plasma was added to the buffer sample, and 50 μl of PBS was also added to the plasma sample. 200 μL of acetonitrile containing an internal standard was added to each sample. The samples were centrifuged at 3200 g for 20 minutes at 4° C., and the supernatants were obtained and analyzed by an LC-MS/MS system. The plasma protein binding rate was calculated as follows: Free form (%)=(Buffer chamber/Plasma chamber)×100 Bound form (%)=100−Free form (%).
(In general: Equilibrium dialysis compares concentrations on both sides of a semipermeable membrane.)

A short description of data set [2]: Metabolic stability in microsomes, rat. Format: in vitro ADME. The note with it: for Metabolic stability, microsomes, Rat: 30 min. As for the experimental part:
Metabolic stability of the compounds was evaluated in rat liver microsomes (RLM). Microsomes (0.5 mg/ml) and test compound (1 μM) in 100 mM potassium phosphate buffer (pH 7.4) were preincubated by shaking at 37° C. for 5 min (100 rpm). Metabolic reactions were initiated by adding an NADPH production system (60 mM potassium phosphate buffer at pH 7.4, 1.3 mM NADP, 3.3 mM glucose-6-phosphate, 0.3 μL glucose-6-phosphate dehydrogenase (0.4 U/mL), and 3.3 mM magnesium chloride) and incubating at 37° C. 100 μL aliquots were recovered at 0, 10, 20, 30 and 60 minutes, and the reaction was terminated by the addition of two volumes of ice-cold acetonitrile (ACN). After mixing by vortex and centrifugation (14000 rpm) for 15 minutes at 4° C., the supernatant was transferred to liquid chromatography vials and analyzed by an LC-MS/MS system.

Data set [3] can be described thus: Plasma and brain concentrations after intravenous administration of Compound 28 in rats. Format: in vivo, SD rats. The note with it: for concentration in the brain tissue: 0.5 hour after intravenous administration of Compound 28; for Kp / concentration at 0.5 h / concentration at 2 h / concentration at 4 h / concentration at 8 h / Kp at 0.5 h / Kp at 2 h / Kp at 4 h / Kp at 8 h: male, rat, iv; for Kp: SD, 5 mg/kg, after i.v. Compound 28, over the time points of Table 6, read-out: brain to plasma ratio; for Kp / Kp at 0.5 h / Kp at 2 h / Kp at 4 h / Kp at 8 h: brain/plasma; for concentration at 0.5 h / Kp at 0.5 h: 0.5 hr after i.v. Compound 28 5 mg/kg; for concentration at 0.5 h / concentration at 2 h / concentration at 4 h / concentration at 8 h / Kp at 0.5 h / Kp at 2 h / Kp at 4 h / Kp at 8 h: rats, mean±SD; for concentration at 2 h / Kp at 2 h: 2 hr after i.v. Compound 28 5 mg/kg; for concentration at 4 h / Kp at 4 h: 4 hr after i.v. Compound 28 5 mg/kg; for concentration at 8 h / Kp at 8 h: 8 hr after i.v. Compound 28 5 mg/kg; for Kp at 0.5 h / Kp at 2 h / Kp at 4 h / Kp at 8 h: read-out: Brain to plasma ratio. As to the method: 7 to 8-weeks old male SD rats (weight of 250 to 290 g) were purchased from SAMTACO (Osan, […], South Korea) and given commercial rat feed (SAMTACO, Osan, Kyungki-Do, South Korea) and water to be consumed freely. 3 rats were housed per each cage at a temperature of 23±2° C. and a relative humidity of 50 to 60% under light-darkness cycles of 12±12 hours. The rats were allowed to acclimate to these conditions for at least one week before the experiments was carried out. The rats were fasted for 12 hours before the experiment and given the tap water to be consumed freely. Compound 28 was administered to the caudal vein at a dose of 5 mg/kg. At 0.5, 2, 4 and 8 hours after intravenous administration, each animal was sacrificed by cervical dislocation. Blood samples were centrifuged at 12,000 rpm for 5 minutes and immediately stored at […] until analysis. After collecting the blood samples, the brains were harvested. Then, the brain tissues were accurately weighed and homogenized with 4-fold volumes of distilled water (IKA T10 basic homogenizer, IKA, Staufen, Germany). The homogenized brain samples were centrifuged at 12,000 rpm for 10 minutes and stored at −20° C. until analysis of 500 μl aliquots. Quantification of the samples was performed using an LC-MS/MS system. The HPLC system is composed of an Agilent 1290 series rapid resolution LC system that includes a binary pump (model: G4220A), an autosampler (model: G4226A) and a column oven (model: G1316C). Mass spectrometer analysis was performed using a Sciex 4000 Q-Trap® mass spectrometer (Applied Biosystems Sciex, Toronto, Ontario, Canada) equipped with an electrospray ionization source. Data acquisition and quantification were performed using the Analyst software version 1.6 from AB SCIEX, and chromatographic separations were performed using Gemini NX C18 (2.0×100 mm, 3 μm, Phenomenex, USA). The mobile phase consisted of ACN (0.1% formic acid) and water (0.1% formic acid) (50:50, v/v). The flow rate was 0.25 mL/min, and the injection volume was set at 5 μL. Mass spectrometry was optimized and performed using a multiple reaction monitoring (MRM) scan in cation mode. The m/z transition was set from 392.1 to 360.2 for Compound 28 and from 378.2 to 360.2 for Compound 29. Preparation of plasma and brain homogenous samples includes protein precipitation with acetonitrile. In 1.5 mL polyethylene microtubes, 5 μL of IS (cimetidine, 10 μg/ml) was added to 50 μL of plasma or tissue homogenate. Subsequently, 150 μl of acetonitrile (extraction solvent) was added to the tube. After vortexing for 30 seconds, the mixture was centrifuged for 5 minutes at 12,000 rpm. 10 μl of supernatant was injected directly into the HPLC column.

Setting [4] is: brain, read-out: Brain concentration.
[5] abbreviates: plasma, read-out: Plasma concentration.

Read-outs that look alike come from different tables or passages of the source.

Turning to `CCCc1nc(Cc2cccc(Oc3ccccc3)c2)c(C)c(C(=O)OC)c1O` [Compound 28, Methyl 3-hydroxy-5-methyl-6-(3-phenoxybenzyl)-2-propylisonicotinate], the fraction unbound at 4 h, 5 µM in data set [1] was 0.675. The “Metabolic stability, microsomes, Rat” value in data set [2] turned out to be 33 % remaining after 30 min. Moreover, the “brain concentration of Compound 28 relative to Compound 29” value in data set [3] (0.5 hour after i.v. Compound 28) came out at 50 times. In data set [3], the “concentration in the brain tissue” value was 1.11 μg/g tissue, the Kp is 1.13 to 1.79, the Kp at 0.5 h was determined as 1.79 ± 0.44 and the Kp at 2 h came out at 1.13 ± 0.25. Moreover, in data set [3], the Kp at 4 h was found to be 0.94 ± 0.21 and the Kp at 8 h stood at 1.19 ± 0.41. Moreover, in data set [3] (setting [4]), the concentration at 0.5 h was found to be 1110 ± 360 ng/g, the concentration at 2 h was 90 ± 10 ng/g, the concentration at 4 h was 50 ± 10 ng/g and the concentration at 8 h came to 30 ± 10 ng/g. For the same compound, in data set [3] (setting [5]), the concentration at 0.5 h is 620 ± 140 ng/mL, the concentration at 2 h was 80 ± 20 ng/mL, the concentration at 4 h is 60 ± 10 ng/mL and the concentration at 8 h was found to be 20 ± 10 ng/mL.

On to `CCCc1nc(Cc2cccc(Oc3ccccc3)c2)c(C)c(C(=O)O)c1O` [Compound 29, 3-Hydroxy-5-methyl-6-(3-phenoxybenzyl)-2-propylisonicotinic acid], for which the fraction unbound at 4 h, 5 µM in data set [1] is 0.002. The “metabolic stability” value in data set [2] (after 30 minutes, species not given) is listed as less than 5%. The “Metabolic stability, microsomes, Rat” value in data set [2] is given as 0 % remaining after 30 min. Besides, in data set [3], the “concentration in the brain tissue” value is given as 0.022 μg/g tissue, the Kp was less than 0.25, the Kp at 0.5 h amounted to 0.24 ± 0.13 and the Kp at 2 h was determined as 0.08 ± 0.02. Also, in data set [3], the Kp at 4 h came to 0.05 ± 0.03 and the Kp at 8 h is 0.1 ± 0.12. In addition, in data set [3] (setting [4]), the concentration at 0.5 h amounted to 22 ± 3 ng/g, the concentration at 2 h came to 2 ± 1 ng/g, the concentration at 4 h was 1 ng/g and the concentration at 8 h was 1 ± 1 ng/g. In data set [3] (setting [5]), the concentration at 0.5 h was determined as 110 ± 50 ng/mL, the concentration at 2 h worked out at 30 ng/mL, the concentration at 4 h came to 20 ± 10 ng/mL and the concentration at 8 h amounted to 10 ng/mL.
